In article PMC12010937, “Evaluation of FXR Activity in Pollutants Identified in Sewage Sludge and Subsequent in Vitro and in Vivo Characterization of Metabolic Effects of Triphenyl Phosphate” (Environmental Health Perspectives, 2025):
“And” between values parts separate entries of the source, which are not always exact repeats. Equal values may be shown once.

Test system: FXR target genes and ceramide synthesis genes in ileum
Experiment: qPCR of genes in mouse ileum
Type: in vivo, C57BL/6N mice
Method: Male C57BL/6N mice (8 wk of age) were purchased from Beijing Vital River Laboratory Inc. and acclimated to the environment for 2 wk before they were used for experiments. The environment was maintained at 22°C, in a 12-h light/dark cycle with 50%–60% relative humidity and fed standard chow diets. Because the male mice are more sensitive to metabolic disease than female mice and the estrous cycle of female mice may induce variability to the metabolic phenotypes,[50] only male mice were used in this study. Animals were randomly assigned to control or TPHP treatment groups (five mice per group). Mice were exposed to corn oil (control) purchased from Sigma-Aldrich (C8267) or TPHP (dissolved in corn oil) at 10mg/kg or 50mg/kg body weight (BW) by daily oral gavage for 35 d. The administered volume was 5mL/kg BW. The TPHP corn oil solutions for administration were prepared by dissolving the TPHP in corn oil, and the solutions were stored at −20°C and freshly prepared each week. BW was measured every other day during the dosing period. At the end of experiments, the mice were anesthetized with isoflurane, then blood was collected from the retro-orbital sinus via orbital puncture, and then the mice were euthanized by cervical dislocation. The liver was isolated, weighted, and divided into three fractions: one fraction was fixed with 4% neutral-buffered formalin for Oil Red staining; another fraction was frozen in liquid nitrogen and stored at −80°C for the BA targeted analysis, lipidomic analysis, and qPCR analysis; the remaining fraction was embedded with 3% carboxymethylcellulose (CMC) for MSI analysis. The ileum was also isolated, weighted, and stored at −80°C for the BA targeted analysis and qRT-PCR analysis. Cecal contents were collected from the cecum of mice for the 16S rRNA gene sequencing analysis. Animal study protocols were approved by the Animal Care and Use Committee of Peking University (approval number: Urban-WanY-1).
Total RNA was extracted from cells or mice tissues (liver and ileum) using the Total RNA kit (Tiangen Biotech), and concentration and quality of the RNA were determined using a SMA4000 Nanodrop spectrophotometer (Merinton). Then, the RNA was reverse transcribed into cDNA by HiScript III RT SuperMix for qPCR (Vazyme). In addition, qPCR was performed in the Mx3005P real-time PCR system (Agilent Technologies) with the ChamQ SYBR qPCR Master Mix Kit (Vazyme). Reactions were carried out for 5 min at 95°C, followed by 40 cycles of two-step PCR for 10 s at 95°C and 30 s at 60°C. The relative RNA expression levels of the target genes were normalized to GAPDH using the 2^−ΔΔCt method.

O=P(Oc1ccccc1)(Oc1ccccc1)Oc1ccccc1 [TPHP, triphenyl phosphate]
Relative mRNA expression of Asbt in ileum (TPHP-H: 50 mg/kg, 35 d): 1.65 fold changes and 1.26 fold changes and 1.68 fold changes
Relative mRNA expression of Cers2 in ileum (TPHP-H: 50 mg/kg, 35 d): 0.89 fold changes and 1.24 fold changes and 1.27 fold changes
Relative mRNA expression of Cers4 in ileum (TPHP-H: 50 mg/kg, 35 d): 1.11 fold changes and 0.99 fold changes and 1.05 fold changes
Relative mRNA expression of Cers6 in ileum (TPHP-H: 50 mg/kg, 35 d): 0.73 fold changes and 1.06 fold changes and 0.97 fold changes
Relative mRNA expression of Degs1 in ileum (TPHP-H: 50 mg/kg, 35 d): 0.95 fold changes and 0.99 fold changes and 1.02 fold changes
Relative mRNA expression of Degs2 in ileum (TPHP-H: 50 mg/kg, 35 d): 1.14 fold changes and 1.06 fold changes and 1.21 fold changes
Relative mRNA expression of Ibabp in ileum (TPHP-H: 50 mg/kg, 35 d): 0.78 fold changes and 0.85 fold changes and 0.92 fold changes
Relative mRNA expression of Ostα in ileum (TPHP-H: 50 mg/kg, 35 d): 0.84 fold changes and 0.68 fold changes and 0.79 fold changes
Relative mRNA expression of Shp in ileum (TPHP-H: 50 mg/kg, 35 d): 0.10 fold changes and 0.18 fold changes and 0.19 fold changes
Relative mRNA expression of Smpd2 in ileum (TPHP-H: 50 mg/kg, 35 d): 1.21 fold changes and 1.23 fold changes and 0.91 fold changes
Relative mRNA expression of Smpd3 in ileum (TPHP-H: 50 mg/kg, 35 d): 0.99 fold changes and 0.93 fold changes and 1.32 fold changes
Relative mRNA expression of Smpd4 in ileum (TPHP-H: 50 mg/kg, 35 d): 0.86 fold changes and 0.81 fold changes and 0.93 fold changes
Relative mRNA expression of Sptlc1 in ileum (TPHP-H: 50 mg/kg, 35 d): 1.12 fold changes and 0.98 fold changes and 0.80 fold changes
Relative mRNA expression of Sptlc2 in ileum (TPHP-H: 50 mg/kg, 35 d): 1.09 fold changes and 1.01 fold changes and 0.85 fold changes
Relative mRNA expression of Asbt in ileum (TPHP-L: 10 mg/kg, 35 d): 1.43 fold changes and 1.04 fold changes and 1.42 fold changes
Relative mRNA expression of Cers2 in ileum (TPHP-L: 10 mg/kg, 35 d): 1.06 fold changes and 1.32 fold changes and 1.08 fold changes
Relative mRNA expression of Cers4 in ileum (TPHP-L: 10 mg/kg, 35 d): 1.04 fold changes and 1.11 fold changes and 1.40 fold changes
Relative mRNA expression of Cers6 in ileum (TPHP-L: 10 mg/kg, 35 d): 0.77 fold changes and 1.22 fold changes and 1.15 fold changes
Relative mRNA expression of Degs1 in ileum (TPHP-L: 10 mg/kg, 35 d): 1.06 fold changes and 1.19 fold changes and 1.18 fold changes
Relative mRNA expression of Degs2 in ileum (TPHP-L: 10 mg/kg, 35 d): 1.13 fold changes and 0.96 fold changes and 1.41 fold changes
Relative mRNA expression of Fgf15 in ileum (TPHP-L: 10 mg/kg, 35 d): 0.80 fold changes and 0.54 fold changes and 0.50 fold changes
Relative mRNA expression of Ibabp in ileum (TPHP-L: 10 mg/kg, 35 d): 0.79 fold changes and 0.87 fold changes and 0.75 fold changes
Relative mRNA expression of Ostα in ileum (TPHP-L: 10 mg/kg, 35 d): 0.81 fold changes and 0.96 fold changes and 0.82 fold changes
Relative mRNA expression of Shp in ileum (TPHP-L: 10 mg/kg, 35 d): 0.33 fold changes and 0.38 fold changes and 0.36 fold changes
Relative mRNA expression of Smpd2 in ileum (TPHP-L: 10 mg/kg, 35 d): 1.01 fold changes and 1.00 fold changes and 1.07 fold changes
Relative mRNA expression of Smpd3 in ileum (TPHP-L: 10 mg/kg, 35 d): 1.11 fold changes and 1.07 fold changes and 1.10 fold changes
Relative mRNA expression of Smpd4 in ileum (TPHP-L: 10 mg/kg, 35 d): 0.84 fold changes and 0.96 fold changes
Relative mRNA expression of Sptlc1 in ileum (TPHP-L: 10 mg/kg, 35 d): 0.87 fold changes and 1.15 fold changes and 0.75 fold changes
Relative mRNA expression of Sptlc2 in ileum (TPHP-L: 10 mg/kg, 35 d): 0.89 fold changes and 1.15 fold changes and 1.13 fold changes
Expression of ceramide synthesis genes in the ileum vs control (in words) (after TPHP exposure): not significantly different
